We go through three compounds from US5075327A, “Antipsoriatic agents” (Hoffmann-La Roche Inc., priority 1988, dated 1991).

The subject of one data set is human keratinocytes. The experiment in a line: Inhibition of proliferation of cultured human keratinocytes (cell count by Coulter Counter). Format: cell-based. The conditions noted are these: for inhibition at 1 µM / inhibition at 0.1 µM / inhibition at 0.01 µM: Homo sapiens, Keratinocyte; for inhibition at 1 µM: 10^-6 M; for inhibition at 0.1 µM: 10^-7 M; for inhibition at 0.01 µM: 10^-8 M; for Percent Inhibition on Keratinocyte Proliferation: ^ 10^-10 M. How it is done: Human neonatal foreskins were collected by circumcision and placed into tubes containing DMEM media. Upon arrival at the laboratory the foreskins were mechanically trimmed of excess dermis and treated with a solution of trypsin/EDTA (0.05%/0.02%) at 4° C. overnight. The epidermis was stripped from the dermis, agitated in buffered saline to remove basal keratinocytes and the stratum corneum buffer was removed. The separated cells were centrifuged, resuspended in media, counted and the cells were plated onto a plain plastic material layer.
The keratinocytes were plated at a density of approximately about 10^5 cells/cm^2 in 35 cm^2 dishes. The cells were grown in keratinocyte growth media (KGM-modified MCDB 153 containing […] by Clonetics of Boulder, Colo.) according to protocols originally developed by Boyce, S. T. and Ham, R. G., J. of Tissue Culture Meth. 9:83-93 (1985). The cells were grown for 5-10 days and changed every 2-3 days with keratinocyte growth media with 1.5 mM CaCl2 (hereinafter KGM/1.5 mM CaCl2) until cells reached a 75% confluency by visual observation. All the cultures were incubated in a humidified atmosphere of 5% CO2 at 37° C.
To establish keratinocyte cell cultures as antiproliferative assays, cells prepared as described in the foregoing were washed with PBS and removed from the culture surface with a solution of trypsin/EDTA (0.25%/0.03%). The removed cells were then centrifuged resuspended in the KGM/1.5 mM CaCl2 and counted. The cells were then distributed to 6 well plates at 100,000 cells per well as described in the foregoing. […] After 24-48 hours the cells were changed into KGM/1.5 mM CaCl2. Test compounds were added one to two days later and the cultures maintained for seven days. The media was changed every 2-3 days.
Solutions of the test compounds were prepared as follows: 1 milligram quantities were received in amber glass vials, and stored at -20° C. Sufficient 100% ethanol was added directly to vials to obtain a millimolar solution that was subsequently aliquoted into small amber vials, overlayed with argon gas and stored at -20° C. Each stock solution was thawed once, used and discarded. Aliquots from the stock solutions were diluted directly into medium and then serially diluted from micromolar to 10^-12 M concentrations. Dilutions from 10^-8 M to 10^-12 M had ethanol added for a final concentration of 0.1%. Stock solutions were used within one month. Control cultures were treated with 0.1% ethanol.
For each experiment every culture well received the same number of cells from the same culture source. At the termination of the experiment the number of cells per was determined by the following procedure. Wells were washed twice with PBS and then incubated for approximately 10-20 minutes at 37° C. with a trypsin/EDTA solution (0.25%/0.03%). PBS plus 0.1% […] was added and the cells were suspended. An aliquot of the cells was placed into isotonic buffered saline and counted on an electronic particle counter (e.g. Coulter Counter® device by Coulter Electronics of Hialeah, Fla.).
For statistical analysis, the mean was calculated for all wells in each treatment group. Standard error was determined by nonbiased analysis using a value for the number of wells in each group, preferably N=3.
Quantification of proliferation was done by enumerating the number of keratinocyte cells in each well using the Coulter Counter®. Results shown in Table 1 below show the percent reduction or inhibition of keratinocyte cells calculated for each of 4 concentrations of the compounds tested according to the formula: [formula]
Each compound was tested in triplicate. The control (ETOH), as noted above, was 0.1% ethanol.

The subject of a further data set is human keratinocyte cells. As to the kind of experiment: Toxicity to keratinocytes in the proliferation assay. Format: cell-based. The conditions noted are these: 10^-6 M; keratinocyte cells in vitro.
The test system of data set [1] is cholesterol biosynthesis in HepG2 cells. As to the kind of experiment: Inhibition of cholesterol biosynthesis in HepG2 cells (3H2O incorporation into cholesterol). Format: cell-based. The conditions noted are these: for IC50: Homo sapiens. The method, then: HepG2 cells are maintained in 175 cm^2 T flasks in Darlington Medium supplemented with 10% fetal bovine serum (FBS). Darlington Medium consists of 3 parts Minimal Essential Medium, 1 part Waymouth's MAB87/3 medium and 3×10^-8 M sodium selenite. This medium is supplemented with 100 U/ml penicillin, 100 ug/ml streptomycin and 2.5 ug/ml Fungizone. In order to establish optimal conditions for the whole cell cholesterol biosynthesis assay, preliminary experiments were performed. 0.25, 0.5, 0.75 or 1×10^6 cells were seeded into 6 well cluster plates in 2 ml of fully supplemented Darlington Medium. The serum supplemented medium was aspirated after 72 hours and replaced with serum free Darlington Medium with antibiotics. After 24, 48 or 72 hours serum free, the cells received either 0.5 or 1 mCi ^3 H2 O/ml medium. This medium was aspirated after 24 hours and the cells were washed twice with phosphate buffered saline. The cells were frozen overnight at -20° C. after which they were harvested from the wells with 1 ml of trypsin-EDTA. Extracted lipids were separated on an HPLC system; cholesterol peaks were collected and counted in a scintillation counter. Results are expressed as the dpm ^3 H2 O incorporated into cholesterol.
In the screening assay the cells received compounds at various concentrations concommitantly with ^3 H2 O. When ethanol was the vehicle, the final ethanol concentration was 0.5%, and control wells with that concentration of ethanol were used in each experiment. Results are expressed as the percent dpm ^3 H2 O incorporated into cholesterol in treated vs control wells. IC50 values are calculated using a linear regression analysis.

For another data set, the system named is cholesterol biosynthesis. The conditions noted are these: U.S. Pat. No. 4,450,171, col. 1, lines 43-51; cited from earlier work.
The mark [2] stands for this setting: 168 h, 7 days, N = 3, read-out: Percent Inhibition on Keratinocyte Proliferation.

Like-named read-outs stand apart in the source and are kept apart here.

Regarding `CC[C@H](C)C(=O)O[C@H]1CCC=C2C=CC[C@H](CC[C@@H]3C[C@@H](O)CC(=O)O3)[C@]21C` [Compound A, [4R-(4α,6β),6[1S-[1α,8β(S), 8aα]]]-6-[2-[1,2,6,7,8,8a-hexahydro-8a-methyl-8-(2-methyl-1-oxo-butoxy)-1-naphthalenyl]-ethyl]tetrahydro-4-hydroxy-2H-pyran-2-one], in the data set with human keratinocytes (setting [2]), the inhibition at 1 µM was 17.1%, the inhibition at 0.1 µM came to 10% and the inhibition at 0.01 µM worked out at 8.24%. For the same compound, the inhibition at 1 µM in the data set on human keratinocytes (read-out: inhibition rate of proliferation of keratinocyte cells) is around 20%. Further, the “Percent Inhibition on Keratinocyte Proliferation” value in the data set on human keratinocytes (7 days, N = 3) amounted to 20.98%. Moreover, the “toxicity to the cells” value with human keratinocyte cells is given as “without toxicity to the cells”. Moreover, in data set [1] (HepG2 cells, Tests I and II), the “cholesterol biosynthesis inhibition as compared to mevinolin” value is “exhibited cholesterol biosynthesis inhibition”. The compound further displayed an IC50 in data set [1] (HepG2, Test I) of 47 nM. For the same compound, the IC50 in data set [1] (HepG2, Test II) worked out at 3810 nM.

For the compound `CC(=O)O[C@H]1CCCC2=CCC[C@H](CCC=O)[C@]21C` [Compound B, [1S-(1α,8β,8aβ)]-8-(2-formylethyl)-8a-methyl-1,2,3,4,6,7,8,8a-octahydro-1-naphthalenol-acetate], in the data set with human keratinocytes (setting [2]), the inhibition at 1 µM is 19.5%, the inhibition at 0.1 µM is 31.4% and the inhibition at 0.01 µM is 22.9%. In addition, the “Percent Inhibition on Keratinocyte Proliferation” value in the data set on human keratinocytes (7 days, N = 3) is recorded as 4.52%. The “inhibition of cell proliferation relative to compound A” value in the data set on human keratinocytes (conclusion in words) is listed as “slightly greater rate than compound A”.

Take `CCC(C)C(=O)OC1CC(C)C=C2C=CC(C)C(CCC3CC(O)CC(=O)O3)C21` (centres unmarked) [mevinolin, reference compound]: the IC50 in data set [1] (HepG2, Test I) turned out to be 20 nM; in data set [1] (HepG2, Test II), 640 nM. The “activity in inhibiting cholesterol biosynthesis among the natural mevinolin compounds” value in the data set on cholesterol biosynthesis was “most active member”.
